Results published in ChEMBL document CHEMBL3751751, “Targeting quorum sensing by designing azoline derivatives to inhibit the N-hexanoyl homoserine lactone-receptor CviR: Synthesis as well as biological and theoretical evaluations” (Bioorg Med Chem, 2015).
Activity calls are given as the source filed them. The calls are words filed in the database; no cut-off is given here.

Columns and labels:
[1] = molecular target: T1, CviR transcriptional regulator (Chromobacterium violaceum) (UniProt D3W065); experiment: Inhibition of CviR in Chromobacterium violaceum CV026 assessed as reduction of violacein production at 0.001 to 1000 uM after 15 hrs
T1 sequence (whole entry): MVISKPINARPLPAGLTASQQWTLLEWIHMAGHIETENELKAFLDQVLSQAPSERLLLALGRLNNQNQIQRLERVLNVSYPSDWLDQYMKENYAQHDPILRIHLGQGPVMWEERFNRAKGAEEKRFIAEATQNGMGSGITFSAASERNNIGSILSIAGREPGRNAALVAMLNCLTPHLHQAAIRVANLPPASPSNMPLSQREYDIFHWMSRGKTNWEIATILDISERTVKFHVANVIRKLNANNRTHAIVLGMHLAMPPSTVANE

[2] = molecular target: T1, CviR transcriptional regulator (Chromobacterium violaceum); experiment: Agonist activity at CviR in Chromobacterium violaceum CV026 assessed as induction of violacein production at 0.001 to 1000 uM after 15 hrs
[3] = system: Chromobacterium violaceum; experiment: Bactericidal activity in Chromobacterium violaceum CV026 at 1000 uM; format: ADME, organism-based; conditions: in vivo
[4] = molecular target: T1, CviR transcriptional regulator (Chromobacterium violaceum); experiment: Inhibition of CviR in Chromobacterium violaceum CV026 assessed as reduction of violacein production at 100 uM after 15 hrs
[5] = molecular target: T2, CviR transcriptional regulator (Chromobacterium violaceum, UniProt D3W065); experiment: Inhibition of CviR in Chromobacterium violaceum CV026 assessed as reduction of violacein production after 15 hrs
T2 sequence (D3W065 whole entry): T1 sequence (whole entry)

[6] = molecular target: T1, CviR transcriptional regulator (Chromobacterium violaceum); experiment: Inhibition of CviR in Chromobacterium violaceum CV026 assessed as reduction of violacein production at 100 nM after 15 hrs
[7] = system: Chromobacterium violaceum; experiment: Bacteriostatic activity in Chromobacterium violaceum CV026 at 100 uM; format: ADME, organism-based; conditions: in vivo
[8] = system: Chromobacterium violaceum; experiment: Bactericidal activity in Chromobacterium violaceum CV026 at 1 mM; format: ADME, organism-based; conditions: in vivo, 1000 µM
[9] = molecular target: T1, CviR transcriptional regulator (Chromobacterium violaceum); experiment: Inhibition of CviR in Chromobacterium violaceum CV026 assessed as reduction of violacein production at 1 nM after 15 hrs
[10] = molecular target: T1, CviR transcriptional regulator (Chromobacterium violaceum); experiment: Inhibition of CviR in Chromobacterium violaceum CV026 assessed as reduction of violacein production at 1000 uM after 15 hrs
[11] = molecular target: T1, CviR transcriptional regulator (Chromobacterium violaceum); experiment: Inhibition of CviR in Chromobacterium violaceum CV026 assessed as reduction of violacein production at 0.1 uM after 15 hrs
[12] = molecular target: T1, CviR transcriptional regulator (Chromobacterium violaceum); experiment: Inhibition of CviR in Chromobacterium violaceum CV026 assessed as reduction of violacein production at 10 to 1000 uM after 15 hrs

Compound | inhibition [1] | Activity [2] | also measured
CCCCCCOc1ccccc1 | inactive | inactive | –
CCCCCCCCCOc1ccc(C2=NCCCN2)cc1 | – | inactive | Activity [3]: Toxic
CCCCCCOc1ccc(C2=NCCO2)cc1 | – | inactive | inhibition [4]: Active; IC50 [5]: 97.4 µM
CCCCCCCCCC(=O)NC1CCOC1=O (stereo unspecified) | – | inactive | inhibition [6]: 51%
CCCCCC(=O)NC1CCOC1=O (stereo unspecified) | – | inactive | –
O=C(COc1ccc(C2=NCCN2)cc1)Nc1ccc(Cl)cc1 | – | inactive | –
O=C(NC1=NCCS1)c1ccccc1 | inactive | inactive | –
CCCCCC(=O)NC1=NCCS1 | inactive | inactive | –
CCCCCCCCC(=O)NC1=NCCS1 | inactive | inactive | –
O=C(NC1=NCCN1)c1ccccc1 | inactive | inactive | –
CCCCCCCCCOc1ccc(C2=NCCN2)cc1 | – | inactive | Activity [7]: Toxic; Activity [8]: Toxic
CCCCCCCCC(=O)Nc1ccc(C2=NCCN2)cc1 | – | inactive | inhibition [9]: 14%; inhibition [4]: 49%
O=C(Cc1ccccc1)NC1=NCCS1 | – | inactive | inhibition [10]: Active; IC50 [5]: 670 µM
CCCCCCCCCCCC(=O)NC1=NCCS1 | inactive | inactive | –
CCCCCC(=O)Nc1ccc(C2=NCCN2)cc1 | – | inactive | inhibition [11]: Active
CCCCCCOc1ccc(C2=NCCN2)cc1 | – | inactive | inhibition [4]: Active; IC50 [5]: 90.9 µM
COc1ccc(NC(=O)COc2ccc(C3=NCCN3)cc2)cc1 | – | inactive | inhibition [12]: Active; IC50 [5]: 341 µM
O=C(COc1ccc(C2=NCCN2)cc1)Nc1ccccc1 | – | inactive | inhibition [12]: Active; IC50 [5]: 66.1 µM
